The results in this text go back to patent publication US10668051B2, “Modulators of calcium release-activated calcium channel” (Rhizen Pharmaceuticals SA, priority 2009, dated 2020).

Assay [1] relates to male DBA/1 Ola HSD mice. Nature of the assay: Collagen-induced arthritis in male DBA/1 Ola HSD mice. The assay is classed as in vivo. The conditions noted are these: 10 mg/kg b.wt, daily po, qd. The method, then: v. Collagen-induced arthritis in male DBA/1 Ola HSD mice: Collagen induced arthritis in rodent models have been widely used to illustrate and understand the development of the disease besides serving as a surrogate for validation of therapeutic targets for human rheumatoid arthritis. Mice were anesthetized with Isoflurane and given 150 μl of Bovine Type II collagen in Freund's complete adjuvant injections (day 0 and day 21). Treatment was initiated on study day 0 and continued once daily, every day (po, qd). Starting on day 18, clinical scores were given daily for each of the paws (right front, left front, right rear, left rear) and continued till the day of sacrifice (day 34). Daily administration of the test compound (Example 69) at 10 mg/kg b.wt alleviated arthritic symptoms, disease progression, and incidence by 30% compared to the control animals.

In assay [2] the target is CRAC channels (Homo sapiens (Human), UniProt Q96D31). Put plainly: In-vitro CRAC channel inhibition assay in Jurkat cells (thapsigargin-induced calcium influx). The assay is classed as cell-based. An outline of the steps: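 Jurkat cells given test compounds in Ca2+/Mg2+-free Hanks buffer for 15 min, then thapsigargin (1 μM final) for 15 min to deplete ER stores. IC50 from percent inhibition of thapsigargin-induced Ca2+ influx.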
Sequence of CRAC channels (Q96D31 whole entry): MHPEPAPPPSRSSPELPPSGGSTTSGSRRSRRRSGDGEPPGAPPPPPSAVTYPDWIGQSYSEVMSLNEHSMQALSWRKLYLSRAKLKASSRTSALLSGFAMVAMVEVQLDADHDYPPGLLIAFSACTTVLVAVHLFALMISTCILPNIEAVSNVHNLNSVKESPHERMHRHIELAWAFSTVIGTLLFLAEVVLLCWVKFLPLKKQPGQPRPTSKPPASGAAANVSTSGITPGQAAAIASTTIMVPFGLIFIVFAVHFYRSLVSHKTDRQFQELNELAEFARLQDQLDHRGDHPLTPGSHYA

In assay [3] the test system is Guinea Pigs. Put plainly: OVA-Induced Asthma in Guinea Pigs. The assay is classed as in vivo. The conditions noted are these: 10 mg/kg b.wt, oral, 1 h before OVA challenge. As for the experimental part: iv. OVA-Induced Asthma in Guinea Pigs: Pulmonary eosinophilia and airway remodelling in conjunction with altered neural control of airway tone and airway epithelial desquamation contributes to Airway Hyper-responsiveness (AHR) in asthma. For determination of eosinophil reduction, animals were sensitized with OVA on d0, d7, and d14 followed by another round (0.1% w/v) through inhalation on d19 & d20. Compounds were administered orally 1 h before OVA challenge (0.3%). BAL fluid was collected on d22 for differential count and cytokine estimation. For determination of change in respiratory parameters, animals were subjected to whole body plethysmography immediately after ova challenge.

Assay [4] relates to Female Balb/C mice. Nature of the assay: Concanavalin (Con) A induced Hepatitis in Female Balb/C mice. The assay is classed as in vivo. Conditions: 10 mg/kg b.wt, oral, 1 hour prior to Con A; blood after 24 hours. As for the experimental part: i. Concanavalin (Con) A induced Hepatitis in Female Balb/C mice: Con A is often used to prepare experimental animals with high levels of cytotoxic T-lymphocytes, because these cells are involved in the development of viral infections in humans. In this model, animals were administered test compounds orally 1 hour prior to intravenous administration of Con A. Blood samples were collected after 24 hours for determination of Serum glutamic oxaloacetic transaminase (SGOT) and Serum glutamic pyruvic transaminase (SGPT) in serum. Results indicated >85% reduction in serum SGOT & SGPT upon administration of the test compound (example 69) at 10 mg/kg b.wt.

What is called inhibition is the change of the read-out against control, counted positive when it falls. On to `Cc1ncc(C(=O)Nc2ccc(-n3nc(C(F)(F)F)cc3C3CC3)cc2)c(C)n1` [Example 69, N-{4-[5-cyclopropyl-3-(trifluoromethyl)-1H-pyrazol-1-yl]phenyl}-2,4-dimethylpyrimidine-5-carboxamide], for which, in assay [1], the “alleviation of arthritic symptoms, disease progression, and incidence compared to the control animals” value was determined as 30%. Further, in assay [2], the inhibition at 1 µM stood at 74.6%. Further, in assay [3], the “change in respiratory parameters (whole body plethysmography)” value is given as “improvement in respiration”. In assay [4], the “reduction in serum SGOT” value was over 85% and the “reduction in serum SGPT” value is recorded as over 85%.
